Two compounds from patent US11360080B2, “AhR-ROR-γt complex as a biomarker and therapeutic target for autoimmune disease and IL-17A-associated disease” (NATIONAL HEALTH RESEARCH INSTITUTES, priority 2018, dated 2022) can be followed below.

Each structure is given as a SMILES string. Counter-ions that a name gives are not always drawn.

The test system of assay [1] is human peripheral blood T cells. The experiment in a line: ELISA of IL-17A in supernatants of human T cells stimulated with anti-CD3/CD28. It counts as cell-based. The note with it: 1 μM or 5 μM for 3 days. How it is done:
Means±SD are shown, (b) ELISA of IL-17A in supernatants of human T cells. T cells were stimulated with anti-CD3/CD28 and treated with C1 (verteporfin) (1 μM or 5 μM) or C2 (1 μM or 5 μM) for 3 days. HC, healthy control; SLE, systemic lupus erythematosus; RA, rheumatoid arthritis; AS, ankylosing spondylitis; PsA, psoriatic arthritis; PSS, primary Sjögren's syndrome. Means±SD are shown. C1 denotes verteporfin; C2 denotes alexidine dihydrochloride.
We further studied whether IL-17A production is abolished by the inhibitors of GLK-induced AhR-RORγt complex in human and murine T cells. We first tested the inhibitor experiment using murine T cells stimulated with TCR signaling (anti-CD3 plus anti-CD28 antibodies). […] Next, we studied the blocking effect of IL-17 production by the treatment of C1 (verteporfin) or C2 (alexidine dihydrochloride) using human peripheral blood T cells. […] Taken together, GLK inhibitors (verteporfin and alexidine dihydrochloride) inhibit GLK-induced AhR-RORγt complex and IL-17A production in human autoimmune patient T cells, as well as the disease severity of autoimmune animal models. Thus, GLK, GLK signaling, or GLK-induced AhR-RORγt complex can be a promising therapeutic target for autoimmune diseases.
A general note: ELISA stands for enzyme-linked immunosorbent assay.

A further assay concerns LLC/luc cells. Nature of the assay: LLC/luc metastatic lung cancer mouse model. It counts as in vivo. As to conditions: C1 0.556 nmole/g, C2 0.085 nmole/g i.v. every 3 days for 30 days. The text has this:
(A) The molecular docking of GLK kinase domain structure with C1 (verteporfin). A three-dimensional structure model depicts the binding of C1 to the predicted GLK kinase domain containing phosphorylated Ser-170. The putative binding affinity was −7.4 kcal/mol. (B) The molecular docking of GLK kinase domain structure with C2 (alexidine dihydrochloride). A three-dimensional structure model depicts the binding of C2 to the predicted GLK kinase domain containing phosphorylated Ser-170. The putative binding affinity was −7.0 kcal/mol. (C) Co-immunoprecipitation (co-IP) of Flag-tagged GLK and GFP-fusion GLK using lysates of HEK293T cells co-transfected with Flag-GLK and GFP-GLK plasmids. Cells were treated with C1 (verteporfin) or C2 (alexidine dihydrochloride). (D) Administration of the GLK inhibitor C1 (0.556 nmole/g) or C2 (0.085 nmole/g) every 3 days for 30 days in the LLC/luc metastatic lung cancer mouse model. (E) The luciferase activity in mice treated with C1 (verteporfin), C2 (alexidine dihydrochloride), or vehicle was detected by IVIS Spectrum. (F) Luminescent intensity of photons emitted from LLC/luc cells in the images in (e) was quantified. (G) Representative immunohistochemistry of H&E in lung tissues from mice treated with C1 (verteporfin), C2, or vehicle. Scale bar, 0.5 cm. (H) In situ PLA assays of the interaction between GLK and IQGAP1 (upper panel) or phosphorylated IQGAP1 Ser-480 (lower panel) in lung tissues from mice treated with C1 (verteporfin), C2 (alexidine dihydrochloride), or vehicle in the LLC/luc metastatic lung cancer mouse model. Original magnification, ×40. We studied whether GLK inhibitors also suppress cancer cell migration. […] Moreover, both C1 (verteporfin) and C2 (alexidine dihydrochloride) treatments suppressed tumor growth in the xenograft mouse model using TC-1 lung cancer cells (FIG. 15). To study whether GLK deficiency results in a reduction of lung cancer metastasis, we used a metastatic Lewis lung carcinoma (LLC) mouse model by tail vein injection of luciferase-expressing LLC (LLC/luc) cells. We identified two GLK inhibitors (verteporfin and alexidine dihydrochloride)) using cell-based assays and in vitro kinase assays. […] The dimerization of Flag-tagged GLK protein and GFP-GLK fusion protein was indeed blocked by the C1 (verteporfin) treatment (FIG. 16C). We treated the LLC/luc cells-containing mice with the GLK inhibitor C1 (verteporfin) or C2 (alexidine dihydrochloride) by intravenous injection every 3 days for 30 days (FIG. 16D). The luciferase activity of LLC/luc cells in the mice was detected by In Vivo Imaging System. The excised lungs were weighed and subjected to H&E staining. […] Inhibition of kinase activity of GLK (MAP4K3) or other MAP4Ks was determined by in vitro kinase assays using myelin basic protein (MBP) as a substrate. […]

Regarding `C=Cc1c(C)c2cc3nc(cc4[nH]c(cc5nc(cc1[nH]2)C(C)=C5CCC(=O)O)c(CCC(=O)OC)c4C)[C@@]1(C)C3=CC=C(C(=O)OC)[C@H]1C(=O)OC` [C1, verteporfin], in assay [1], the “IL-17A production, anti-CD3/CD28-stimulated T cells of autoimmune disease patients” value is listed as “drastically inhibited” and the “TCR-induced IL-17A production, T cells from healthy controls” value was “significantly reduced”. Also, in the assay on LLC/luc cells, the “cancer colony in lung (histology)” value is on record as “reduction” and the “luciferase activity of LLC/luc cells in the lung” value was “reduced”.
On to `CCCCC(CC)CNC(=N)NC(=N)NCCCCCCNC(=N)NC(=N)NCC(CC)CCCC` (stereo not shown) [C2, alexidine dihydrochloride], for which the “IL-17A production, anti-CD3/CD28-stimulated T cells of autoimmune disease patients” value in assay [1] is “drastically inhibited”. For the same compound, in the assay with LLC/luc cells, the “cancer colony in lung (histology)” value is given as “reduction” and the “luciferase activity of LLC/luc cells in the lung” value is reported as “reduced”.
